Experimental data taken from PubChem BioAssay AID330 (DTP/NCI, 2004).
Where “and” joins values, the source holds several entries; their conditions need not be identical. Equal entries are not always repeated. Inconclusive results and toxic doses are left out. How the source made its calls: active means survival T/C of 150% or more; inactive means T/C below 125% in these data.

Tested on: P388 leukemia ip, CD2F1 mice, survival T/C
Assay: NCI In Vivo Anticancer Drug Screen. Data for tumor model P388 Leukemia (intraperitoneal) in CD2F1 (CDF1) mice
Conditions: endpoint: median survival time, higher = longer survival
Summary of the method: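 Mice carrying the transplanted tumor received test compound or vehicle. Survival was recorded in each group, and the value is the treated-group measurement divided by that of the vehicle-treated control group.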

[1] = dose: 50.0 mg/kg/injection, schedule: Q01DX009 (ip), vehicle: saline with Tween-80
[2] = dose: 50.0 mg/kg/injection, schedule: Q01DX005 (ip), vehicle: Klucel (hydroxypropylcellulose) (HPC)
[3] = dose: 100.0 mg/kg/injection, schedule: Q01DX005 (ip), vehicle: Klucel (hydroxypropylcellulose) (HPC)
[4] = dose: 200.0 mg/kg/injection, schedule: Q01DX005 (ip), vehicle: Klucel (hydroxypropylcellulose) (HPC)
[5] = dose: 50.0 mg/kg/injection, schedule: Q01DX005 (ip), vehicle: saline with Tween-80
[6] = dose: 25.0 mg/kg/injection, schedule: Q01DX009 (ip), vehicle: Klucel (hydroxypropylcellulose) (HPC)
[7] = dose: 50.0 mg/kg/injection, schedule: Q01DX009 (ip), vehicle: Klucel (hydroxypropylcellulose) (HPC)
[8] = dose: 60.0 mg/kg/injection, schedule: Q01DX005 (ip), vehicle: Klucel (hydroxypropylcellulose) (HPC)
[9] = dose: 120.0 mg/kg/injection, schedule: Q01DX005 (ip), vehicle: Klucel (hydroxypropylcellulose) (HPC)
[10] = dose: 240.0 mg/kg/injection, schedule: Q01DX005 (ip), vehicle: Klucel (hydroxypropylcellulose) (HPC)
[11] = dose: 100.0 mg/kg/injection, schedule: Q01DX009 (ip), vehicle: Klucel (hydroxypropylcellulose) (HPC)
[12] = dose: 200.0 mg/kg/injection, schedule: Q01DX009 (ip), vehicle: Klucel (hydroxypropylcellulose) (HPC)
[13] = dose: 60.0 mg/kg/injection, schedule: Q01DX005 (ip), vehicle: saline with Tween-80
[14] = dose: 120.0 mg/kg/injection, schedule: Q01DX005 (ip), vehicle: saline with Tween-80
[15] = dose: 240.0 mg/kg/injection, schedule: Q01DX005 (ip), vehicle: saline with Tween-80
[16] = dose: 100.0 mg/kg/injection, schedule: Q01DX001 (ip), vehicle: Klucel (hydroxypropylcellulose) (HPC)
[17] = dose: 200.0 mg/kg/injection, schedule: Q01DX001 (ip), vehicle: Klucel (hydroxypropylcellulose) (HPC)
[18] = dose: 400.0 mg/kg/injection, schedule: Q01DX001 (ip), vehicle: Klucel (hydroxypropylcellulose) (HPC)

Measured: T/C

CNNCc1ccc(C(=O)NC(N)=O)cc1
active: dose: 300.0 mg/kg/injection, schedule: Q01DX009 (ip), vehicle: saline 170 % of control

O=S(=O)(/C=C/c1ccccc1)OCCCl
inactive: [1] 103 % of control | dose: 100.0 mg/kg/injection, schedule: Q01DX009 (ip), vehicle: saline with Tween-80 107 % of control | dose: 200.0 mg/kg/injection, schedule: Q01DX009 (ip), vehicle: saline with Tween-80 107 % of control

CC1(C)C(=O)C2=C(Nc3ccccc3C2C(C)(C)C)c2ccccc21 (stereo not given)
inactive: [2] 99 % of control | [3] 93 % of control | [4] 92 % of control

O=C1C(Cl)=C(Nc2cccc3ccccc23)C(=O)c2ccccc21
inactive: dose: 6.25 mg/kg/injection, schedule: Q01DX005 (ip), vehicle: saline with Tween-80 104 % of control | dose: 12.5 mg/kg/injection, schedule: Q01DX005 (ip), vehicle: saline with Tween-80 101 % of control | dose: 25.0 mg/kg/injection, schedule: Q01DX005 (ip), vehicle: saline with Tween-80 109 % of control | [5] 108 % of control

[N-]=[N+]=C1N=CN=C1c1ncn[nH]1
active: dose: 12.5 mg/kg/injection, schedule: Q01DX009 (ip), vehicle: Klucel (hydroxypropylcellulose) (HPC) 150 % of control | [6] 155 % of control | [7] 160 % of control
inactive: dose: 3.12 mg/kg/injection, schedule: Q01DX009 (ip), vehicle: Klucel (hydroxypropylcellulose) (HPC) 113 % of control

C=C(C#N)CCl
inactive: dose: 25.0 mg/kg/injection, schedule: Q01DX001 (ip), vehicle: saline with Tween-80 104 % of control | dose: 50.0 mg/kg/injection, schedule: Q01DX001 (ip), vehicle: saline with Tween-80 95 % of control

CCN(CC)CCN1C=CC(=C2C(=O)c3ccccc3C2=O)C=C1
inactive: [8] 99 % of control | [9] 101 % of control | [10] 99 % of control

COC1/C=C\OC2(C)Oc3c(C)c(O)c4c(O)c(c5c(c4c3C2=O)NC2(CCN(C)CC2)N=5)=NC(=O)/C(C)=C\C=C\C(C)C(O)C(C)C(O)C(C)C(OC(C)=O)C1C (stereo not given)
inactive: [6] 100 % of control | [7] 100 % of control | [11] 102 % of control | [12] 94 % of control

CN(C)CC(C)(CN(C)C)C(=O)/C=C/c1c(Cl)cccc1Cl
inactive: [13] 115 % of control | [14] 120 % of control

O=C(O)C1C2C(=O)N(CO)C(=O)C2C(C(=O)O)C2C3C(=O)N(CO)C(=O)C3C12 (stereo not given)
inactive: dose: 12.5 mg/kg/injection, schedule: Q01DX009 (ip), vehicle: water 108 % of control | dose: 25.0 mg/kg/injection, schedule: Q01DX009 (ip), vehicle: water 99 % of control | dose: 50.0 mg/kg/injection, schedule: Q01DX009 (ip), vehicle: water 102 % of control and 105 % of control and 92 % of control | dose: 100.0 mg/kg/injection, schedule: Q01DX009 (ip), vehicle: water 107 % of control and 117 % of control and 120 % of control | dose: 200.0 mg/kg/injection, schedule: Q01DX009 (ip), vehicle: water 114 % of control and 120 % of control

CC1=C(C(N)=O)C(c2ccccc2Cl)NC(=S)N1 (stereo not given)
inactive: [8] 117 % of control | [9] 98 % of control | [10] 99 % of control

CC(=O)NC1C(OC(C)=O)C(OC(C)=O)C(COC(C)=O)OC1[N+](=O)[O-] (stereo not given)
inactive: [13] 101 % of control | [14] 94 % of control | [15] 99 % of control

CC(=O)COc1ccccc1NC(C)=O
inactive: dose: 100.0 mg/kg/injection, schedule: Q04DX003 (ip), vehicle: saline with Tween-80 109 % of control | dose: 200.0 mg/kg/injection, schedule: Q04DX003 (ip), vehicle: saline with Tween-80 90 % of control | dose: 400.0 mg/kg/injection, schedule: Q04DX003 (ip), vehicle: saline with Tween-80 100 % of control

C=CCNC(=S)NCCN(CCO)C(=S)NCC=C
inactive: dose: 12.5 mg/kg/injection, schedule: Q01DX009 (ip), vehicle: saline 105 % of control | dose: 25.0 mg/kg/injection, schedule: Q01DX009 (ip), vehicle: saline 104 % of control | dose: 50.0 mg/kg/injection, schedule: Q01DX009 (ip), vehicle: saline 104 % of control and 93 % of control | dose: 200.0 mg/kg/injection, schedule: Q01DX009 (ip), vehicle: saline 98 % of control

Cc1ccc(OP(=O)(Oc2ccc(C)cc2)Oc2ccc(C)cc2)cc1.Cc1ccc(OP(=O)(Oc2ccc(C)cc2)Oc2ccc(C)cc2)cc1.Cc1ccc(OP(=O)(Oc2ccc(C)cc2)Oc2ccc(C)cc2)cc1.Cc1ccc(OP(=O)(Oc2ccc(C)cc2)Oc2ccc(C)cc2)cc1.[Cr+3].[O-][Cl+3]([O-])([O-])O
inactive: [16] 100 % of control | [17] 96 % of control | [18] 89 % of control

O=C1NC2C3CC(c4ccccc43)C12 (stereo not given)
inactive: [13] 105 % of control | [14] 109 % of control | [15] 108 % of control

CN(C)c1ccc(C2(c3ccc(N(C)C)cc3)NNC(=O)c3ccccc32)cc1
inactive: [5] 93 % of control | dose: 100.0 mg/kg/injection, schedule: Q01DX005 (ip), vehicle: saline with Tween-80 90 % of control | dose: 200.0 mg/kg/injection, schedule: Q01DX005 (ip), vehicle: saline with Tween-80 86 % of control

CCCN1CCc2cc3c(cc2C1)OCO3
inactive: dose: 60.0 mg/kg/injection, schedule: Q01DX005 (ip), vehicle: saline 93 % of control | dose: 120.0 mg/kg/injection, schedule: Q01DX005 (ip), vehicle: saline 91 % of control

C=CCSc1ncnc2c1ncn2C1OC(CO)C(O)C1O (stereo not given)
inactive: dose: 100.0 mg/kg/injection, schedule: Q04DX003 (ip), vehicle: saline sonified 105 % of control | dose: 200.0 mg/kg/injection, schedule: Q04DX003 (ip), vehicle: saline sonified 115 % of control | dose: 400.0 mg/kg/injection, schedule: Q04DX003 (ip), vehicle: saline sonified 120 % of control

CCCN(CCC)c1ncnc2[nH]ncc12
inactive: dose: 50.0 mg/kg/injection, schedule: Q01DX005 (ip), vehicle: saline 92 % of control | dose: 100.0 mg/kg/injection, schedule: Q01DX005 (ip), vehicle: saline 92 % of control

COc1ccc(C2CC(=O)N(CN3CCN(c4ccccc4)CC3)C(=O)C2)cc1
inactive: dose: 12.5 mg/kg/injection, schedule: Q01DX009 (ip), vehicle: saline with Tween-80 98 % of control | dose: 25.0 mg/kg/injection, schedule: Q01DX009 (ip), vehicle: saline with Tween-80 93 % of control | [1] 87 % of control and 92 % of control

CCOC(=O)C(OCC)C1=Cc2ccccc2CC1 (stereo not given)
inactive: dose: 25.0 mg/kg/injection, schedule: Q01DX001 (ip), vehicle: Klucel (hydroxypropylcellulose) (HPC) 93 % of control | dose: 50.0 mg/kg/injection, schedule: Q01DX001 (ip), vehicle: Klucel (hydroxypropylcellulose) (HPC) 100 % of control | [16] 93 % of control | [17] 102 % of control | [18] 107 % of control

COC1=CC(=O)C(=O)C=C1C(C)(C)C
inactive: dose: 2.8 mg/kg/injection, schedule: Q01DX005 (ip), vehicle: saline with Tween-80 107 % of control | dose: 5.6 mg/kg/injection, schedule: Q01DX005 (ip), vehicle: saline with Tween-80 100 % of control | dose: 11.25 mg/kg/injection, schedule: Q01DX005 (ip), vehicle: saline with Tween-80 107 % of control | dose: 22.5 mg/kg/injection, schedule: Q01DX005 (ip), vehicle: saline with Tween-80 98 % of control and 115 % of control | dose: 45.0 mg/kg/injection, schedule: Q01DX005 (ip), vehicle: saline with Tween-80 91 % of control and 96 % of control

COc1cc2c(cc1OC)CC[N+](Cc1ccc([N+](=O)[O-])cc1)=C2
inactive: dose: 12.5 mg/kg/injection, schedule: Q01DX001 (ip), vehicle: saline + alcohol 98 % of control | dose: 25.0 mg/kg/injection, schedule: Q01DX001 (ip), vehicle: saline + alcohol 95 % of control | dose: 50.0 mg/kg/injection, schedule: Q01DX001 (ip), vehicle: saline + alcohol 95 % of control

Brc1ccccc1CN=Cc1ccc2c(c1)OCO2
inactive: [2] 101 % of control | [3] 105 % of control | [4] 103 % of control

C[C@@H](O)c1nc(C(N)=O)cs1
inactive: [13] 104 % of control | [14] 109 % of control | [15] 106 % of control

Cc1cc(C)c2c(c1)sc1nncn12
inactive: [7] 118 % of control | [11] 94 % of control | [12] 92 % of control
